# Reference: patent US9873709B2 (priority 2013, dated 2018)
# Where a name gives a salt, the structure may show the parent alone.
# Tested on: JAK1-dependent STAT6 phosphorylation downstream of IL-13 stimulation in TF-1 human erythroleukemia cells
# Assay: cells
# Details: TF-1, read-out: IL-13-pSTAT6 IC50
row,SMILES,IC50 [nM]
1,"CN1CCC(N(C)C(=O)c2ccc(Nc3nc4c(N5CCC(C)(c6ccc(Cl)cc6)CC5)cccn4n3)cc2)CC1 [Example 1-262, 4-[[8-[4-(4-chlorophenyl)-4-methyl-1-piperidyl]-[1,2,4]triazolo[1,5-a]pyridin-2-yl]amino]-N-methyl-N-(1-methyl-4-piperidyl)benzamide]",120
2,"O=C(c1ccc(Nc2nc3c(N4CCC(O)(c5ccc(Cl)cc5)CC4)cccn3n2)cc1)N1CCN(C2CC2)CC1 [Example 1-54, [4-[[8-[4-(4-chlorophenyl)-4-hydroxy-1-piperidyl]-[1,2,4]triazolo[1,5-a]pyridin-2-yl]amino]phenyl]-(4-cyclopropylpiperazin-1-yl)methanone]",100
3,"O=C(NC1COC2(CCNCC2)C1)c1ccc(Nc2nc3c(N4CCC(O)(c5ccc(Cl)cc5)CC4)cccn3n2)cc1 (centres unmarked) [Example 1-221, 4-[[8-[4-(4-chlorophenyl)-4-hydroxy-1-piperidyl]-[1,2,4]triazolo[1,5-a]pyridin-2-yl]amino]-N-(1-oxa-8-azaspiro[4.5]decan-3-yl)benzamide]",866
4,"CN1CC(NC(=O)c2ccc(Nc3nc4c(N5CCC(O)(c6ccc(Cl)cc6)CC5)cccn4n3)cc2)C1 [Example 1-92, 4-[[8-[4-(4-chlorophenyl)-4-hydroxy-1-piperidyl]-[1,2,4]triazolo[1,5-a]pyridin-2-yl]amino]-N-(1-methylazetidin-3-yl)benzamide]",59.3
5,"CN(C)C(=O)C1(c2ccncc2)CCCN1C(=O)c1ccc(Nc2nc3c(N4CCC(O)(c5ccc(Cl)cc5)CC4)cccn3n2)cc1 (centres unmarked) [Example 1-74, 1-[4-[[8-[4-(4-chlorophenyl)-4-hydroxy-1-piperidyl]-[1,2,4]triazolo[1,5-a]-pyridin-2-yl]amino]benzoyl]-N,N-dimethyl-2-(4-pyridyl)pyrrolidine-2-carboxamide]",33.5
6,"CN1CCN(C(=O)C2CN(C(=O)c3ccc(Nc4nc5c(N6CCC(O)(c7ccc(Cl)cc7)CC6)cccn5n4)cc3)C2)CC1 [Example 1-165, [4-[[8-[4-(4-chlorophenyl)-4-hydroxy-1-piperidyl]-[1,2,4]triazolo[1,5-a]pyridin-2-yl]amino]phenyl]-[3-(4-methylpiperazine-1-carbonyl)azetidin-1-yl]methanone]",25.1

# Next, values leading:
row,IC50 [nM],SMILES
1,287,CN(C(=O)c1ccc(Nc2nc3c(C4=CCN(C(=O)CCC(F)(F)F)CC4)cccn3n2)cc1)C1CNC1 [Example 2-451]
2,68.4,"NC1CN(C(=O)c2ccc(Nc3nc4c(C5=CCN(C(=O)CCC(F)(F)F)CC5)cccn4n3)cc2)C1 [Example 2-256, 1-[4-[2-[4-(3-aminoazetidine-1-carbonyl)anilino]-[1,2,4]triazolo[1,5-a]pyridin-8-yl]-3,6-dihydro-2H-pyridin-1-yl]-4,4,4-trifluoro-butan-1-one]"
3,113,"CN(Cc1ccc2c(c1)CCCN2C)C(=O)c1ccc(Nc2nc3c(C4=CCN(C(=O)CCC(F)(F)F)CC4)cccn3n2)cc1 [Example 2-477, N-methyl-N-[(1-methyl-3,4-dihydro-2H-quinolin-6-yl)methyl]-4-[[8-[1-(4,4,4-trifluorobutanoyl)-3,6-dihydro-2H-pyridin-4-yl]-[1,2,4]triazolo[1,5-a]pyridin-2-yl]amino]benzamide]"
4,8,"CN(CCc1cccnc1)C(=O)c1ccc(Nc2nc3c(C4=CCN(C(=O)CCC(F)(F)F)CC4)cccn3n2)cc1 [Example 2-212, N-methyl-N-[2-(3-pyridyl)ethyl]-4-[[8-[1-(4,4,4-trifluorobutanoyl)-3,6-dihydro-2H-pyridin-4-yl]-[1,2,4]triazolo[1,5-a]pyridin-2-yl]amino]benzamide]"
5,110,"O=C(NCC1CCC2(CCNCC2)CO1)c1ccc(Nc2nc3c(C4=CCN(C(=O)CCC(F)(F)F)CC4)cccn3n2)cc1 (centres unmarked) [Example 2-189, N-(2-oxa-9-azaspiro[5.5]undecan-3-ylmethyl)-4-[[8-[1-(4,4,4-trifluorobutanoyl)-3,6-dihydro-2H-pyridin-4-yl]-[1,2,4]triazolo[1,5-a]pyridin-2-yl]amino]benzamide]"
6,5.6,"CN(Cc1cccnc1)C(=O)c1ccc(Nc2nc3c(C4=CCN(C(=O)CCC(F)(F)F)CC4)cccn3n2)cc1 [Example 2-402, N-methyl-N-(3-pyridylmethyl)-4-[[8-[1-(4,4,4-trifluorobutanoyl)-3,6-dihydro-2H-pyridin-4-yl]-[1,2,4]triazolo[1,5-a]pyridin-2-yl]amino]benzamide]"
7,849,"CN1CCC(N(C)C(=O)c2ccc(Nc3nc4c(C5=CCN(Cc6ccccc6)CC5)cccn4n3)cc2)CC1 [Example 2-8, 4-[[8-(1-benzyl-3,6-dihydro-2H-pyridin-4-yl)-[1,2,4]triazolo[1,5-a]pyridin-2-yl]amino]-N-methyl-N-(1-methyl-4-piperidyl)benzamide; hydrochloride]"
8,40.9,"O=C(CCC(F)(F)F)N1CC=C(c2cccn3nc(Nc4ccc(C(=O)N5CCCC6(CNCCO6)C5)cc4)nc23)CC1 (centres unmarked) [Example 2-190, 4,4,4-trifluoro-1-[4-[2-[4-(1-oxa-4,8-diazaspiro[5.5]undecane-8-carbonyl)anilino]-[1,2,4]triazolo[1,5-a]pyridin-8-yl]-3,6-dihydro-2H-pyridin-1-yl]butan-1-one]"
9,228,"O=C(NCC1CCCN1)c1ccc(Nc2nc3c(C4=CCN(C(=O)CCC(F)(F)F)CC4)cccn3n2)cc1 (centres unmarked) [Example 2-317, N-(pyrrolidin-2-ylmethyl)-4-[[8-[1-(4,4,4-trifluorobutanoyl)-3,6-dihydro-2H-pyridin-4-yl]-[1,2,4]triazolo[1,5-a]pyridin-2-yl]amino]benzamide]"
10,23.7,"CCOC(=O)N1CC=C(c2cccn3nc(Nc4ccc(C(=O)N(C)C5CCN(C)CC5)cc4)nc23)CC1 [Example 2-1, ethyl 4-[2-[4-[methyl-(1-methyl-4-piperidyl)carbamoyl]anilino]-[1,2,4]triazolo[1,5-a]pyridin-8-yl]-3,6-dihydro-2H-pyridine-1-carboxylate]"
11,8.9,"COCCN1CCN(C(=O)c2ccc(Nc3nc4c(C5=CCN(C(=O)CCC(F)(F)F)CC5)cccn4n3)cc2)CC1 [Example 2-331, 4,4,4-trifluoro-1-[4-[2-[4-[4-(2-methoxyethyl)piperazine-1-carbonyl]anilino]-[1,2,4]triazolo[1,5-a]pyridin-8-yl]-3,6-dihydro-2H-pyridin-1-yl]butan-1-one]"
12,163,"CN1CCC(N(C)C(=O)c2ccc(Nc3nc4c(C5=CCN(c6ccccc6)CC5)cccn4n3)cc2)CC1 [Example 2-284, N-methyl-N-(1-methyl-4-piperidyl)-4-[[8-(1-phenyl-3,6-dihydro-2H-pyridin-4-yl)-[1,2,4]triazolo[1,5-a]pyridin-2-yl]amino]benzamide]"
13,12.6,"CN1CCCC(CN(C)C(=O)c2ccc(Nc3nc4c(C5=CCN(C(=O)CCC(F)(F)F)CC5)cccn4n3)cc2)C1 (centres unmarked) [Example 2-389, N-methyl-N-[(1-methyl-3-piperidyl)methyl]-4-[[8-[1-(4,4,4-trifluorobutanoyl)-3,6-dihydro-2H-pyridin-4-yl]-[1,2,4]triazolo[1,5-a]pyridin-2-yl]amino]benzamide]"
14,5.5,"CC(C)(CN1CCOCC1)NC(=O)c1ccc(Nc2nc3c(C4=CCN(C(=O)CCC(F)(F)F)CC4)cccn3n2)cc1 [Example 2-333, N-(1,1-dimethyl-2-morpholino-ethyl)-4-[[8-[1-(4,4,4-trifluorobutanoyl)-3,6-dihydro-2H-pyridin-4-yl]-[1,2,4]triazolo[1,5-a]pyridin-2-yl]amino]benzamide]"
